# Reference: patent publication US12404244B2, “Pan-KIT kinase inhibitor having quinoline structure and application thereof” (Tarapeutics Science Inc., priority 2018, dated 2025)
# How the values were obtained:
# [1] = test system: TEL-KIT/L576P-BaF3; assay: Proliferation of TEL-KIT/L576P-BaF3 cells (CCK-8); format: cell-based; details: Mus musculus, 72 h, read-out: GI50 TEL-KIT/L576P-BaF3
# Source text: (§1) Compounds as provided herein were further evaluated for their inhibitory effects on proliferation of cancer cells by testing their effects on growth of cancer cells. In this example the following cells were used: primary mouse B cells BaF3 (purchased from ATCC), GIST-T1 cells of the human gastrointestinal stromal tumor cell line (expressing wild-type KIT gene) (purchased from Cosmo Bio Co., Ltd. (Japan)). The present lab further constructed and used the following: mouse Tel-Kit-BaF3 (stably expressing KIT wild-type kinase), mouse Tel-Kit/T670I-BaF3 (stably expressing KIT T670I mutant kinase), mouse Tel-Kit/V559A-BaF3 (stably expressing KIT V559A mutant kinase), mouse Tel-Kit/V559D-BaF3 (stably expressing KIT V559D mutant kinase), mouse Tel-Kit/V559G-BaF3 (stably expressing KIT V559G mutant kinase), mouse Tel-Kit/V560D-BaF3 (stably expressing KIT V560D mutant kinase), mouse Tel-Kit/L576P-BaF3 (stably expressing KIT L576P mutant kinase), mouse Tel-Kit/V654A-BaF3 (stably expressing KIT V654A mutant kinase), mouse Tel-Kit/V654A/V559D-BaF3 (stably expressing KIT V654A V559D mutant kinase), mouse Tel-Kit/T670E-BaF3 (stably expressing KIT T670E mutant kinase), mouse Tel-Kit/T670I/V559D-BaF3 (stably expressing KIT T670I V559D mutant kinase), mouse Tel-Kit/S709F-BaF3 (stably expressing KIT S709F mutant kinase), mouse Tel-Kit/D816E-BaF3 (stably expressing KIT D816E mutant kinase), mouse Tel-Kit/D816H-BaF3 (stably expressing KIT D816H mutant kinase), mouse Tel-Kit/D820E-BaF3 (stably expressing KIT D820E mutant kinase), mouse Tel-Kit/D820G-BaF3 (stably expressing KIT D820G mutant kinase), mouse Tel-Kit/D820Y-BaF3 (stably expressing KIT D820Y mutant kinase), mouse Tel-Kit/N822K-BaF3 (stably expressing KIT N822K mutant kinase), mouse Tel-Kit/Y823D-BaF3 (stably expressing KIT Y823D mutant kinase), mouse Tel-Kit/A829P-BaF3 (stably expressing KIT A829P mutant kinase), GIST-T1-T670I cells of the human gastrointestinal stromal tumor cell line (expressing KIT-T670I mutant gene). […]
# [2] = test system: GIST-T1; assay: Proliferation of GIST-T1 cells (CCK-8); format: cell-based; details: Homo sapiens, GISTT1, 72 h, read-out: GI50 GIST-T1
# Source text: as §1
# The cells after incubation were detected using CCK-8 (purchased from MedChem Express, Shanghai, China) cell viability assay kit (CCK-8 may be reduced by dehydrogenase in living cells to a highly water-soluble yellow formazan product, and the amount of the resultant formazan is proportional to the number of living cells), the number of living cells were quantified with a microplate reader, and GI50 of the compounds and the control compounds were calculated (the results shown in Table 2 and Table 3).
# [3] = test system: TEL-KIT/V654A/V559D-BaF3; assay: Proliferation of TEL-KIT/V654A/V559D-BaF3 cells (CCK-8); format: cell-based; details: Mus musculus, 72 h, read-out: GI50 TEL-KIT/V654A/V559D-BaF3
# Source text: as §1, with “gene). The above cell lines were constructed by: amplifying respectively the sequences of human KIT and various mutant kinase regions of KIT via PCR, inserting the fragments respectively into MSCV-Puro vectors having a N-terminal TEL fragment and/or a NPM fragment and/or a TPR fragment (purchased from Clontech), transfecting mouse BaF3 cells with the vectors by means of retrovirus to obtain stably transfected cells, removing the growth factor IL-3, and thereby eventually obtaining cell lines that depend on the transferred protein KIT or various mutants of KIT.” for “gene).”
# [4] = test system: TEL-KIT/D816E-BaF3; assay: Proliferation of TEL-KIT/D816E-BaF3 cells (CCK-8); format: cell-based; details: Mus musculus, 72 h, read-out: GI50 TEL-KIT/D816E-BaF3
# Source text: as §1, with “gene). The above cell lines were constructed by: amplifying respectively the sequences of human KIT and various mutant kinase regions of KIT via PCR, inserting the fragments respectively into MSCV-Puro vectors having a N-terminal TEL fragment and/or a NPM fragment and/or a TPR fragment (purchased from Clontech), transfecting mouse BaF3 cells with the vectors by means of retrovirus to obtain stably transfected cells, removing the growth factor IL-3, and thereby eventually obtaining cell lines that depend on the transferred protein KIT or various mutants of KIT.” for “gene).”
# [5] = test system: TEL-KIT/D820E-BaF3; assay: Proliferation of TEL-KIT/D820E-BaF3 cells (CCK-8); format: cell-based; details: Mus musculus, 72 h, read-out: GI50 TEL-KIT/D820E-BaF3
# Source text: as §1, with “gene). The above cell lines were constructed by: amplifying respectively the sequences of human KIT and various mutant kinase regions of KIT via PCR, inserting the fragments respectively into MSCV-Puro vectors having a N-terminal TEL fragment and/or a NPM fragment and/or a TPR fragment (purchased from Clontech), transfecting mouse BaF3 cells with the vectors by means of retrovirus to obtain stably transfected cells, removing the growth factor IL-3, and thereby eventually obtaining cell lines that depend on the transferred protein KIT or various mutants of KIT.” for “gene).”
# [6] = test system: TEL-KIT/N822K-BaF3; assay: Proliferation of TEL-KIT/N822K-BaF3 cells (CCK-8); format: cell-based; details: Mus musculus, 72 h, read-out: GI50 TEL-KIT/N822K-BaF3
# Source text: as §1, with “gene). The above cell lines were constructed by: amplifying respectively the sequences of human KIT and various mutant kinase regions of KIT via PCR, inserting the fragments respectively into MSCV-Puro vectors having a N-terminal TEL fragment and/or a NPM fragment and/or a TPR fragment (purchased from Clontech), transfecting mouse BaF3 cells with the vectors by means of retrovirus to obtain stably transfected cells, removing the growth factor IL-3, and thereby eventually obtaining cell lines that depend on the transferred protein KIT or various mutants of KIT.” for “gene).”
# [7] = test system: TEL-KIT/T670I-BaF3; assay: Proliferation of TEL-KIT/T670I-BaF3 cells (CCK-8); format: cell-based, mouse; details: Mus musculus, 72 h, read-out: GI50 TEL-KIT/T670I-BaF3
# Source text: Compounds as provided herein were further evaluated for their inhibitory effects on proliferation of cancer cells by testing their effects on growth of cancer cells. In this example the following cells were used: primary mouse B cells BaF3 (purchased from ATCC), GIST-T1 cells of the human gastrointestinal stromal tumor cell line (expressing wild-type KIT gene) (purchased from Cosmo Bio Co., Ltd. (Japan)). The present lab further constructed and used the following: mouse Tel-Kit-BaF3 (stably expressing KIT wild-type kinase), mouse Tel-Kit/T670I-BaF3 (stably expressing KIT T670I mutant kinase), mouse Tel-Kit/V559A-BaF3 (stably expressing KIT V559A mutant kinase), mouse Tel-Kit/V559D-BaF3 (stably expressing KIT V559D mutant kinase), mouse Tel-Kit/V559G-BaF3 (stably expressing KIT V559G mutant kinase), mouse Tel-Kit/V560D-BaF3 (stably expressing KIT V560D mutant kinase), mouse Tel-Kit/L576P-BaF3 (stably expressing KIT L576P mutant kinase), mouse Tel-Kit/V654A-BaF3 (stably expressing KIT V654A mutant kinase), mouse Tel-Kit/V654A/V559D-BaF3 (stably expressing KIT V654A V559D mutant kinase), mouse Tel-Kit/T670E-BaF3 (stably expressing KIT T670E mutant kinase), mouse Tel-Kit/T670I/V559D-BaF3 (stably expressing KIT T670I V559D mutant kinase), mouse Tel-Kit/S709F-BaF3 (stably expressing KIT S709F mutant kinase), mouse Tel-Kit/D816E-BaF3 (stably expressing KIT D816E mutant kinase), mouse Tel-Kit/D816H-BaF3 (stably expressing KIT D816H mutant kinase), mouse Tel-Kit/D820E-BaF3 (stably expressing KIT D820E mutant kinase), mouse Tel-Kit/D820G-BaF3 (stably expressing KIT D820G mutant kinase), mouse Tel-Kit/D820Y-BaF3 (stably expressing KIT D820Y mutant kinase), mouse Tel-Kit/N822K-BaF3 (stably expressing KIT N822K mutant kinase), mouse Tel-Kit/Y823D-BaF3 (stably expressing KIT Y823D mutant kinase), mouse Tel-Kit/A829P-BaF3 (stably expressing KIT A829P mutant kinase), GIST-T1-T670I cells of the human gastrointestinal stromal tumor cell line (expressing KIT-T670I mutant gene). The above cell lines were constructed by: amplifying respectively the sequences of human KIT and various mutant kinase regions of KIT via PCR, inserting the fragments respectively into MSCV-Puro vectors having a N-terminal TEL fragment and/or a NPM fragment and/or a TPR fragment (purchased from Clontech), transfecting mouse BaF3 cells with the vectors by means of retrovirus to obtain stably transfected cells, removing the growth factor IL-3, and thereby eventually obtaining cell lines that depend on the transferred protein KIT or various mutants of KIT. The GIST-T1-T670I (expressing C-KIT-T670I mutant gene) cell line was constructed by our laboratory as follows: designing sgRNA that targeted a region around T670 of the KIT gene with CRISPR Design Tool (website: crispr.mit.edu, Zhang Feng Lab), cloning it into pSpCas9(BB)-2A-Puro vector; co-transfecting cells with the resultant vector and a single-stranded oligonucleotide having T670I site mutation that is near to T670, subjecting the resultant to antibiotics screening, followed by dilution, and monocellular culture in a 96-well plate; validating the site T670 of the cells by sequence detection via Sanger sequencing.
smiles,measurement,setting,value
"COc1cc2nccc(Oc3ccc(NC(=O)Cc4ccc(C)c(C(F)(F)F)c4)cc3)c2cc1OC [Example 1, N-(4-((6,7-dimethoxyquinolin-4-yl)oxy)phenyl)-2-(4-methyl-3-(trifluoromethyl)phenyl)acetamide]",GI50,[1],2 nM
same,GI50,[2],5 nM
same,GI50,[3],39 nM
same,GI50,[4],9 nM
same,GI50,[5],5 nM
same,GI50,[6],69 nM
same,GI50,[7],14 nM
